Source: patent publication US20260048155A1, “BIOCOMPATIBLE PARAHYDROGEN HYPERPOLARIZED SOLUTIONS BY PRECIPITATION AND RE-DISSOLUTION” (North Carolina State University, priority 2022, published 2026)
“And” between values parts separate entries of the source, which are not always exact repeats. Equal entries are not always repeated.

Assays:
[1] = Precipitation without water addition: 13C polarization of residual dissolved pyruvate in organic phase; type: physicochemical; conditions: for P13C in precipitated sample, no water added / 13C polarization in precipitated sample, no water added: residual dissolved pyruvate in EtAc/CH3OH
Method: To investigate the impact of precipitate relaxation in variable magnetic fields during the dissolution process, the Re-D SABRE experiment was repeated, omitting the addition of water after precipitation (i.e., the decay of ^13C HP signal in the dissolved phase of the precipitated samples was measured). […] For (iii), P13C was still much lower compared to the sample that rested at the 1.4 T magnet (setup iv), i.e., P13C=0.08±0.02% and P13C=3.4±0.9%, respectively—this signal is entirely derived from the remaining dissolved pyruvate in solution (2.3±0.6 mM in the 500 μL sample of EtAc and CH3OH, FIG. 17) not from the precipitated micro-crystalline phase. […] This observation is important because it means the Re-D SABRE process can be successfully performed at storage fields as low as 0.3 T. The rapid ^13C T1 of HP [1-^13C]pyruvate in the EtAc fraction at Earth's field, estimated to be <1.3 s, may be caused by the high catalyst: substrate ratio in the EtAc.
Description of the magnets used in the precipitation and relaxation study: The precipitation and phase separation approach was investigated at 4 different magnetic fields: (i) Earth's field; (ii) 10 mT; (iii) 0.3 T; and (iv) 1.4 T. For (i), the samples were positioned in a plastic holder at a defined position in the laboratory at which a magnetic field of ≈40 μT was measured. For (ii), a modified setup of permanent magnets creating a 10 mT magnetic field over a volume of ≈20×10×10 cm^3 was employed. For (iii), a hollow cylindrical magnet (K&J Magnetics, Inc., P/N RY04Y0) was used with a length of 5.1 cm and an inner bore of approximately 6.4 mm diameter in which the NMR tube was positioned. For (iv), the NMR benchtop spectrometer was used, which approximately provides the constant 1.4 T field up to 10 cm above the magnet center.

[2] = SABRE-SHEATH hyperpolarization, 13C polarization quantified at 1.4 T benchtop NMR; type: physicochemical
Method: A previously reported setup and experimental protocol has been used to prepare high P13C of up to ≈14.5% of 30 mM [1-^13C]pyruvate in methanol, which was confirmed after transferring the HP samples from the polarizer into a 1.4 T benchtop ^1H/^13C NMR system. The mean of N=19 experiments from 9 samples measured on 5 different days under the same conditions was 8±2%. […] These hyperpolarization values correspond to ^13C enhancement ε13C of ≈75,000-fold. The optimal experimental parameters are obtained via sweeping the static magnetic field (optimum transfer field BT≈0.4 μT) and temperature (TT≈10° C.) using a p-H2 flow rate of 75 standard cubic centimeters per minute (scc/m), and ≈7 bar total pressure, FIGS. 4A-4B, respectively.
CD3OD is widely used as the SABRE-reaction-hosting solvent because it provides convenient means of attaining high-field NMR spectrometer lock. However, non-deuterated polarization media may be preferred for biomedical applications. For this reason, systematic relaxation dynamics studies were performed comparing CD3OD, CH3OH, and C2H5OH for SABRE-SHEATH [1-^13C]pyruvate hyperpolarization, investigating relevant parameters for these solvents and for fixed concentrations of pyruvate, SABRE catalyst, and DMSO (30 mM, 6 mM, and 40 mM, respectively). However, the ethanol sample was prepared with only 6 mM pyruvate and 10% H2O due to limited solubility. The optimal Br was similar in all investigated samples (≈0.4 μT, FIG. 4A). […] (FIG. 4B). Thus, all the experiments described below were performed using these optimized Br and Tr parameters.
Preparation of samples: Parahydrogen was enriched to >99.10% and filled into aluminum cylinders at 350 psi using a setup described previously. The SABRE samples were prepared in CD3OD (CAS: DLM-24-25), CH3OH (CAS: 67-56-1), or ethanol (CAS: 64-17-5) using the stated concentration of sodium pyruvate (in most cases 30 mM, natural abundance—CAS: 113-24-6; [1-^13C]-labeled—CAS: 490709-250 MG), an iridium catalyst at 6 mM concentration synthesized as described previously, doped with 40 mM dimethyl sulfoxide (DMSO) to block one active center of the catalyst and to avoid pyruvate from binding to the catalyst at two sites. Oxygen was removed from the samples by guiding argon gas at approximately ambient pressure through the samples for ˜1 min. Also, oxygen was removed from all solvents used for the preparation of the samples (methanol or ethanol) or for the precipitation of pyruvate (ethyl acetate (EtAc), room temperature, CAS: 141-78-6) prior to mixing them to the catalyst substrate solutions. For the SABRE experiments, the samples were filled into medium wall, or in case of precipitation studies, into regular wall NMR tubes (SKU: WG-1000-8, outer diameter 5 mm, inner diameter 4 mm and length 8 inches). Note that the total volume of the catalyst-substrate sample was 600 μL (in the baseline and solvent study) or 100 μL in experiments were precipitation and phase separation were performed. In case of dissolution SABRE, 300 μL of room-temperature H2O (HPLC grade-submicron filtered) or D2O (CAS: 7789-20-0) were added.
SABRE hyperpolarization setup: The experimental setup has been used previously but will be described in much greater detail elsewhere. Briefly, it consisted of a 3-layer mu-metal of 3″ I.D. and 9″ DEPTH to shield external magnetic fields (Magnetic Shield Corporation, ZG-203), combined with a custom-made solenoid to generate a static magnetic field, B0, of ˜300 nT (28 AWG wire, 650 windings, 7″ homogeneous length). Note that this coil provided a constant magnetic field here (5 VDC power supply connected to the solenoid via a resistor board to regulate the current and effectively set the magnetic field). […]

With `CC(=O)[13C](=O)O` [[1-^13C]pyruvate] the “P13C in precipitated sample, no water added” value ([1]; 0.3 T (iii)) was 0.08±0.02%, the “P13C in precipitated sample, no water added” value ([1]; 1.4 T (iv)) was 3.4±0.9% and the “13C polarization in precipitated sample, no water added” value ([1]; 10 mT (ii)) was “no measurable ^13C polarization was observed”. For the same compound, the “13C polarization in precipitated sample, no water added” value ([1]; Earth's field (i)) was “no measurable ^13C polarization was observed”, the “P13C in (iii) 0.3 T lower than in (iv) 1.4 T” value ([1]; dissolved phase in EtAc fraction) was “≈ 40 times” and the “fold lower P13C compared to CH3OH and CD3OD” value ([2]; 6 mM in 90% C2H5OH + 10% H2O) was 1.4 fold. For the same compound, the P13C ([2]; 30 mM in CD3OD, representative polarization build-up at 0.4 μT) was 8.5±0.1%, the P13C ([2]; 30 mM in CH3OH, representative polarization build-up at 0.4 μT) was 7.8±0.1% and the “P13C, mean” value ([2]; 30 mM in methanol, N=19 experiments from 9 samples on 5 days, inter-day mean with s.d.) was 8±2%. For the same compound, the “P13C, maximum” value ([2]; 30 mM in methanol, SABRE-SHEATH, detected at 1.4 T) was “≈ 14.5% and 14.5%”, the P13C ([2]; 60 mM in CH3OH, 6 mM catalyst, p-H2 80 scc/m) was 3.7±0.06% and the “P13C, mean base-line before precipitation” value ([2]; in CH3OH, batch used for filtering tests) was 10±1%. For the same compound, the “13C enhancement ε13C” value ([2]; in methanol, vs thermal polarization at 1.4 T) was “≈ 75,000 fold”.
